According to patent publication US6998395B2, “Administration of estradiol metabolites for the treatment or prevention of obesity, metabolic syndrome, diabetes, and vascular and renal disorders” (University of Pittsburg,, priority 2001, dated 2006):
“Also recorded” adds a separate entry of the source.

Experiments:
male obese ZSF1 rats = assay: Treatment of male obese ZSF1 rats for 26 weeks with 2-hydroxyestradiol: body weight, food intake, metabolic cage and plasma parameters; format: in vivo, rat
From the text: Twenty 12-week-old male obese ZSF1 rats (Genetic Models Inc., Indianapolis, Ind.) were used. Obese ZSF1 rats were developed by crossing lean female Zucker Diabetic Fatty rats (ZDF +/fa) and lean male Spontaneously Hypertensive Heart Failure rats (SHHF/Mcc-fa^cp, +/cp). As recently described by Tofovic, S. P., et al., Renal Failure 22: 387 (2000) the disclosure of which is incorporated herein by reference, compared with several different rat strains including Wistar-Kyoto normotensive rats, spontaneously hypertensive rats and obese SHHF/Mcc-fa^cp rats, obese ZSF1 rats have the metabolic syndrome (i.e., hypertension, diabetes and hyperlipidemia), left ventricular dysfunction, and develop nephropathy as characterized by massive proteinuria, abnormal renal histopathology (glomerulosclerosis and severe tubulointerstitial and vascular changes) and reduced glomerular filtration rate. Thus, this rat strain develops obesity, the metabolic syndrome and the end-organ sequelae associated with the metabolic syndrome.
At baseline, animals were placed in metabolic cages and food intake, water intake, urine output and urinary excretion of proteins (bicinchoninic acid method) and glucose (Infinity™ Glucose Reagent, Sigma Diagnostics, St Louis, Mo.) were determined. Next, osmotic mini pumps infusing either vehicle (polyethylene glycol 400, 2.5 ul/hour) or 2-hydroxyestradiol (10 ug/kg/hour) were implanted subcutaneously (random assignment). Minipumps were replaced every 33 days. Metabolic cage studies were repeated 12 and 24 weeks after initiation of treatments. After 9 and 25 weeks of treatment, animals were fasted overnight, and blood samples (tail vein) for measurement of cholesterol were taken. Plasma samples were analyzed in duplicates for cholesterol levels (Sigma Diagnostics, St. Louis, Mo.). After 26 weeks of treatment, animals were fasted overnight, an oral glucose tolerance test was conducted and total glycated hemoglobin levels were determined (Sigma Diagnostics). Plasma glucose levels were measured with the Precision Q.I.D. Blood Glucose Test Strips kit (Medisense, Inc., Bedford, Mass.).
All values refer to means±SEM for 9 to 10 animals in each group. Statistical significance was calculated using either an unpaired Student's t-test or a 2-factor analysis of variance (repeated measures) followed by a Fisher's Least Significance Difference test if appropriate. The criterion of significance was p<0.05.

male ZSF1 rats = assay: Treatment of male ZSF1 rats for 24 weeks with 2-hydroxyestradiol or 2-methoxyestradiol; format: in vivo, rat; conditions: 10 ug/kg/hr, 28 weeks, versus control animals
[1] = 10 ug/kg/hour s.c., 12 weeks of treatment
[2] = 10 ug/kg/hour s.c., 24 weeks of treatment
[3] = Table 1, after approximately 6 months of treatment

C[C@]12CC[C@@H]3c4cc(O)c(O)cc4CC[C@H]3[C@@H]1CC[C@@H]2O [2-hydroxyestradiol, estra-1,3,5 (10)-triene-2,3,1 7-triol (17β)]
Body weight (male obese ZSF1 rats; 10 ug/kg/hour s.c. osmotic minipump, 12 weeks of treatment, mean±SEM): 545±13 grams
Body weight (male obese ZSF1 rats; 10 ug/kg/hour s.c. osmotic minipump, 26 weeks of treatment, mean±SEM): 571±13 grams
Hypercholesterolemia (plasma cholesterol) (male obese ZSF1 rats; 10 ug/kg/hour s.c., 9 weeks of treatment, fasted overnight): 151±9 mg cholesterol/100 ml
Food intake (male obese ZSF1 rats; [1]): 26.4±1.3 grams/day
Glucosuria (male obese ZSF1 rats; [1]): 0.2±0.2 grams glucose/day
Polydipsia (male obese ZSF1 rats; [1]): 40.1±4.0 mls of water consumed/day
Polyuria (male obese ZSF1 rats; [1]): 23.6±2.4 mls of urine/day
Food intake (male obese ZSF1 rats; [2]): 36.6±0.9 grams/day
Glucosuria (male obese ZSF1 rats; [2]): 1.7±0.5 grams glucose/day
Polydipsia (male obese ZSF1 rats; [2]): 67.4±4.5 mls of water consumed
Polyuria (male obese ZSF1 rats; [2]): 45.6±3.8 mls of urine/day
Hypercholesterolemia (plasma cholesterol) (male obese ZSF1 rats; 10 ug/kg/hour s.c., 25 weeks of treatment, fasted overnight): 247±28 mg cholesterol/100 ml
Glycated hemoglobin (male obese ZSF1 rats; 10 ug/kg/hour s.c., 26 weeks into the study): 3.8±0.7%
Oral glucose tolerance test: plasma glucose 2 hours after an oral dose of 2 grams of glucose per kg body weight (male obese ZSF1 rats; 10 ug/kg/hour s.c., 26 weeks of treatment, fasted overnight): 265±13 mg/100 ml
Progression of proteinuria (urinary protein excretion, FIG. 1) (male obese ZSF1 rats; 10 ug/kg/hour s.c., baseline, 12 and 24 weeks, versus vehicle): significant (p<0.001) effect of time and treatment; also recorded: attenuated the progression of proteinuria
Food intake (male obese ZSF1 rats; [3]): 36.6 ± 0.9 grams
Glycated hemoglobin (male obese ZSF1 rats; [3]): 3.8 ± 0.7%
Plasma Cholesterol (male obese ZSF1 rats; [3]): 247 ± 28 mg/100 ml
Plasma Glucose 2 Hours After Oral Glucose Load of 2 g/kg (male obese ZSF1 rats; [3]): 265 ± 13 mg/100 ml
Urinary Glucose Excretion (male obese ZSF1 rats; [3]): 1.7 ± 0.5 grams/day
Urinary Protein Excretion (male obese ZSF1 rats; [3]): 333 ± 21 mg/day
Urine Volume (male obese ZSF1 rats; [3]): 45.6 ± 3.8 mL/day
Water Intake (male obese ZSF1 rats; [3]): 67.4 ± 4.5 mL/day
Body weight (male obese ZSF1 rats; Table 1, after approximately 6 months of treatment, mean ± SEM): 571 ± 11 grams
Glycated hemoglobin (HbA1c) (FIG. 14) (male ZSF1 rats): lower
